Measurements taken from patent US20180271960A1, “METHOD TO TREAT CANCER USING ARGININE DELPETOR AND ORNITHINE DECARBOXYLASE (ODC) INHIBITOR” (Bio-Cancer Treatment International Ltd., priority 2015, published 2018).

Experiments:
Format in all cases: in vivo, mouse
[1] = system: MIA-PaCa-2 pancreatic cancer xenograft; assay: MIA-PaCa-2 pancreatic cancer xenograft model; details: MIA-PaCa-2 xenograft; PEG-BCT-100 20 mg/kg IV twice a week; DFMO 2% w/v in drinking water
Experimental: (§1) In one example embodiment, the MIA-PaCa-2 tumour cells are maintained in vitro culture in EMEM medium supplemented with 10% heat inactivated fetal bovine serum at 37° C. in an atmosphere of 5% CO2 in air. The tumour cells are routinely sub-cultured twice weekly. The cells growing in an exponential growth phase are harvested and counted for tumour inoculation.
Each mouse is inoculated subcutaneously at the right flank region with MIA-PaCa-2 tumour cells (5×10^6) in 0.1 ml of PBS (1:1 Matrigel) for tumour development. The treatments start when the mean tumour size reaches 124 mm^3. The date of tumour cell inoculation was denoted as day 0.
(§2) Four treatment groups of animals, with eight animals in each group, are tested. Control group (negative control) receives physiological saline, and the three treatment groups respectively receive 20 mg/kg of PEG-BCT-100 alone, 2% w/v DFMO in drinking water, and combination of 20 mg/kg of PEG-BCT-100 and 2% w/v DFMO. PEG-BCT-100 is administered intravenously, twice a week, until euthanization while DFMO is supplied in drinking water at 2% w/v.

[2] = system: K-562 leukemia xenograft; assay: K-562 leukemia xenograft model; details: K-562 xenograft; PEG-BCT-100 20 mg/kg IV twice a week; DFMO 2% w/v in drinking water
Experimental: as §1, with “K-562” for “MIA-PaCa-2”, “vitro as a suspension” for “vitro”, “RPMI1640” for “EMEM”
(§3) Each mouse is inoculated subcutaneously at the right flank region with K-562 tumour cells (5×10^6) in 0.1 ml of PBS/Matrigel (1:1) for tumour development. The treatments start when the mean tumour size reaches 125 mm^3. The date of tumour cell inoculation is denoted as day 0.
as §2

[3] = system: SU-DHL-6 B cell lymphoma xenograft; assay: SU-DHL-6 B cell lymphoma xenograft model; details: SU-DHL-6 xenograft; PEG-BCT-100 20 mg/kg IV twice a week; DFMO 2% w/v in drinking water
Experimental: as §1, with “SU-DHL-6 human lymphoma” for “MIA-PaCa-2 tumour”, “vitro as a suspension” for “vitro”, “RPMI1640” for “EMEM”
as §3, with “One day before tumour inoculation, all mice are sub-lethally irradiated with 60Co (200 rad). Each” for “Each”, “SU-DHL-6” for “K-562”
as §2, with “Four groups of” for “Four treatment groups of”, “water, and a combination of” for “water, and combination of”

[4] = system: CAPAN-1 pancreatic cancer xenograft; assay: CAPAN-1 pancreatic cancer xenograft model; details: CAPAN-1 xenograft; PEG-BCT-100 20 mg/kg IV twice a week; DFMO 2% w/v in drinking water
Experimental: as §1, with “CAPAN-1” for “MIA-PaCa-2”
Each mouse is inoculated subcutaneously at the right flank region with CAPAN-1 tumour cells (5×10^6) in 0.1 ml of PBS (1:1 Matrigel) for tumour development. The treatments start when the mean tumour size reaches 119 mm^3. The date of tumour cell inoculation is denoted as day 0.
as §2

[5] = system: Hep 3B hepatocellular carcinoma xenograft; assay: Hep 3B hepatocellular carcinoma xenograft model; details: Hep 3B xenograft; PEG-BCT-100 20 mg/kg IV twice a week; DFMO 2% w/v in drinking water
Experimental: as §1, with “Hep 3B” for “MIA-PaCa-2”
Each mouse is inoculated subcutaneously at the right flank region with Hep 3B tumour cells (5×10^6) in 0.1 ml of PBS (1:1 Matrigel) for tumour development. The treatments start when the mean tumour size reaches 119 mm^3. The date of tumour cell inoculation is denoted as day 0.
as §2

[6] = system: SU-DHL-10 B cell lymphoma xenograft; assay: SU-DHL-10 B cell lymphoma xenograft model; details: SU-DHL-10 xenograft; PEG-BCT-100 20 mg/kg IV twice a week; DFMO 2% w/v in drinking water
Experimental: as §1, with “SU-DHL-10 human lymphoma” for “the MIA-PaCa-2 tumour”, “RPMI1640” for “EMEM”, “20%” for “10% heat inactivated”, “cells” for “cells growing”
One day before tumour inoculation, all mice are sub-lethally irradiated with 60Co (200 rad). Each mouse is inoculated subcutaneously at the right flank region with SU-DHL-10 tumour cells (1×10^7) in 0.1 ml of PBS/Matrigel (1:1) for tumour development. The treatments start when the mean tumour volume reached 116 mm^3. The date of tumour cell inoculation is denoted as day 0.
as §2, with “saline,” for “saline, and the three treatment groups respectively receive”

Row | Molecule | anti-tumour effect [1] | anti-tumour effect [2] | anti-tumour effect [3] | anti-tumour effect [4] | anti-tumour effect [5] | anti-tumour effect [6]
1 | NCCC[C@](N)(C(=O)O)C(F)F [DFMO, α-difluoromethylornithine, reference compound] | significant anti-tumour effect | no significant anti-tumour effect | do not produce a significant anti-tumour effect | no significant anti-tumour effect | significant anti-tumour effect | no significant anti-tumour effect
2 | PEG-BCT-100: pegylated recombinant human arginase I (SEQ ID NO.1, or SEQ ID NO.3 with six histidines), about 6-12 PEG molecules per arginase (protein, UniProt P05089 1-322, looked up, PEG, about 6-12 per arginase; optional His6 tag) Arginase-1: MSAKSRTIGIIGAPFSKGQPRGGVEEGPTVLRKAGLLEKLKEQECDVKDYGDLPFADIPNDSPFQIVKNPRSVGKASEQLAGKVAEVKKNGRISLVLGGDHSLAIGSISGHARVHPDLGVIWVDAHTDINTPLTTTSGNLHGQPVSFLLKELKGKIPDVPGFSWVTPCISAKDIVYIGLRDVDPGEHYILKTLGIKYFSMTEVDRLGIGKVMEETLSYLLGRKKRPIHLSFDVDGLDPSFTPATGTPVVGGLTYREGLYITEEIYKTGLLSGLDIMEVNPSLGKTPEEVTRTVNTAVAITLACFGLAREGNHKPIDYLNPPK | do not produce a significant anti-tumour effect | no significant anti-tumour effect | do not produce a significant anti-tumour effect | no significant anti-tumour effect | does not produce a significant anti-tumour effect | slightly promotes SU-DHL-10 tumour growth
